Legend:
barnyardgrass [1] = experiment: Test B pre-/postemergence herbicide test; assay type: in vivo, Echinochloa crus-galli
Outline: (§1)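 Greenhouse pot assay with simultaneous preemergence (treated seed) and postemergence (2–18 cm seedlings) applications of surfactant-containing, non-phytotoxic solvent formulations. Response scored visually 13–15 days later on a 0–100 scale, 100 meaning complete control.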

Surinam grass = experiment: Test B pre-/postemergence herbicide test; assay type: in vivo, Urochloa decumbens
Outline: (§2)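 Herbicidal effect was judged by eye on a 0–100 scale after plants stood 13 to 15 days in the greenhouse following pre- or postemergence treatment with surfactant-containing formulations.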

rice = experiment: Test B flooded paddy test; assay type: in vivo, Oryza sativa; details: 1000 g ai/ha, visual rating, scale 0 to 100 (0 no effect, 100 complete control), 13 to 15 days
Outline: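 Treated at 2-leaf (paddy) or 1–4-leaf, 2–18 cm (postemergence); greenhouse 13–15 d; visual score vs control, 0 none to 100 complete control; dash = not tested.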

cocklebur = experiment: Test B pre-/postemergence herbicide test; assay type: in vivo, Xanthium strumarium
Outline: as §1

giant foxtail = experiment: Test B pre-/postemergence herbicide test; assay type: in vivo, Setaria faberi
Outline: as §2

pigweed = experiment: Test B pre-/postemergence herbicide test; assay type: in vivo, Amaranthus retroflexus
Outline: as §2

corn = experiment: Test B pre-/postemergence herbicide test; assay type: in vivo, Zea mays
Outline: as §2

large crabgrass = experiment: Test B pre-/postemergence herbicide test; assay type: in vivo, Digitaria sanguinalis
Outline: as §2

morningglory = experiment: Test B pre-/postemergence herbicide test; assay type: in vivo, Ipomoea coccinea
Outline: as §1

[2] = system: small flower umbrella sedge; experiment: Test B flooded paddy test; assay type: in vivo, Cyperus difformis; details: 1000 g ai/ha, visual rating, scale 0 to 100 (0 no effect, 100 complete control), 13 to 15 days
Outline: (§3)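 Greenhouse test; postemergence application to plants at 1–4 leaves (2–18 cm); paddy species at 2 leaves; evaluated visually vs controls at 13–15 days; scale 0–100 (100 = complete control).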

lambsquarters = experiment: Test B pre-/postemergence herbicide test; assay type: in vivo, Chenopodium album
Outline: as §2

barnyardgrass [3] = experiment: Test B flooded paddy test; assay type: in vivo, Echinochloa crus-galli; details: 1000 g ai/ha, visual rating, scale 0 to 100 (0 no effect, 100 complete control), 13 to 15 days
Outline: as §3

velvetleaf = experiment: Test B pre-/postemergence herbicide test; assay type: in vivo, Abutilon theophrasti
Outline: as §2

wheat = experiment: Test B postemergence herbicide test; assay type: in vivo, Triticum aestivum; set-up: key to Wheat plant response rating: 0 = no effect, 100 = complete control; details: scale 0 (no effect) to 100 (complete control); for Plant response rating, Wheat: Postemergence, 500 g ai/ha, visual rating after 13 to 15 days
Outline: (§4)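 Read-out: visual comparison with controls, scored 0 to 100, where 100 means complete control and 0 no effect. Formulated chemicals were applied postemergence to plants 2–18 cm tall (1- to 4-leaf), or to flooded-paddy plants at the 2-leaf stage, then held 13 to 15 days under glass.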

wild oat = experiment: Test B postemergence herbicide test; assay type: in vivo, Avena fatua; details: scale 0 (no effect) to 100 (complete control); for Oat, Wild plant response rating: 125 g ai/ha; for Plant response rating, Oat, Wild: 500 g ai/ha, visual rating after 13 to 15 days
Outline: as §4

[4] = Postemergence, 125 g ai/ha, scale 0 (no effect) to 100 (complete control)
[5] = Postemergence, 500 g ai/ha, visual rating after 13 to 15 days, scale 0 (no effect) to 100 (complete control)
[6] = Preemergence, 500 g ai/ha, scale 0 to 100
[7] = preemergence, 125 g ai/ha, 0 to 100 scale, 0 is no effect, 100 is complete control
[8] = postemergence, 125 g ai/ha, visual rating, scale 0 (no effect) to 100 (complete control)

C=CCNC(=O)c1cccc(NC(=O)c2cc(C(C)(C)C)nn2CC)c1 [Compound 46]
Barnyardgrass plant response rating (barnyardgrass [1]; [4]): 10
Plant response rating, Barnyardgrass (barnyardgrass [1]; [5]): 50
Barnyardgrass plant response rating (barnyardgrass [1]; [6]): 100
Plant response rating, Surinam Grass (Surinam grass; [5]): 40
Surinam Grass plant response rating (Surinam grass; [6]): 70
Plant response rating, Surinam Grass (Surinam grass; [7]): 20
Rice plant response rating (rice): 70
Cocklebur plant response rating (cocklebur; [4]): 30
Plant response rating, Cocklebur (cocklebur; [5]): 90
Cocklebur plant response rating (cocklebur; [6]): 30
Foxtail, Giant plant response rating (giant foxtail; [4]): 30
Plant response rating, Foxtail, Giant (giant foxtail; [5]): 40
Foxtail, Giant plant response rating (giant foxtail; [6]): 100
Plant response rating, Foxtail, Giant (giant foxtail; [7]): 60
Plant response rating, Pigweed (pigweed; [5]): 90
Pigweed plant response rating (pigweed; [6]): 100
Plant response rating, Pigweed (pigweed; [7]): 100
Corn plant response rating (corn; [4]): 20
Plant response rating, Corn (corn; [5]): 30
Corn plant response rating (corn; [6]): 10
Crabgrass, Large plant response rating (large crabgrass; [4]): 30
Plant response rating, Crabgrass, Large (large crabgrass; [5]): 90
Crabgrass, Large plant response rating (large crabgrass; [6]): 100
Morningglory plant response rating (morningglory; [4]): 0
Plant response rating, Morningglory (morningglory; [5]): 90
Morningglory plant response rating (morningglory; [6]): 20
Plant response rating, Morningglory (morningglory; [7]): 10
Sedge, Umbrella plant response rating [2]: 80
Lambsquarters plant response rating (lambsquarters; [4]): 80
Plant response rating, Lambsquarters (lambsquarters; [5]): 90
Lambsquarters plant response rating (lambsquarters; [6]): 100
Plant response rating, Lambsquarters (lambsquarters; [7]): 100
Barnyardgrass plant response rating (barnyardgrass [3]): 90
Plant response rating, Velvetleaf (velvetleaf; [5]): 80
Velvetleaf plant response rating (velvetleaf; [6]): 100
Plant response rating, Velvetleaf (velvetleaf; [7]): 50
Plant response rating, Wheat (wheat): 30
Oat, Wild plant response rating (wild oat; Postemergence): 0
Plant response rating, Oat, Wild (wild oat; Postemergence): 10

C#CCNC(=O)c1cccc(NC(=O)c2cc(C(C)(C)C)nn2CC)c1 [Compound 47]
Barnyardgrass plant response rating (barnyardgrass [1]; [4]): 20
Plant response rating, Barnyardgrass (barnyardgrass [1]; [5]): 40
Barnyardgrass plant response rating (barnyardgrass [1]; [6]): 90
Plant response rating, Surinam Grass (Surinam grass; [5]): 40
Surinam Grass plant response rating (Surinam grass; [6]): 70
Plant response rating, Surinam Grass (Surinam grass; [7]): 20
Rice plant response rating (rice): 70
Cocklebur plant response rating (cocklebur; [4]): 10
Plant response rating, Cocklebur (cocklebur; [5]): 100
Cocklebur plant response rating (cocklebur; [6]): 40
Foxtail, Giant plant response rating (giant foxtail; [4]): 30
Plant response rating, Foxtail, Giant (giant foxtail; [5]): 30
Foxtail, Giant plant response rating (giant foxtail; [6]): 90
Plant response rating, Foxtail, Giant (giant foxtail; [7]): 40
Plant response rating, Pigweed (pigweed; [5]): 100
Pigweed plant response rating (pigweed; [6]): 100
Plant response rating, Pigweed (pigweed; [7]): 100
Corn plant response rating (corn; [4]): 10
Plant response rating, Corn (corn; [5]): 30
Corn plant response rating (corn; [6]): 10
Crabgrass, Large plant response rating (large crabgrass; [4]): 10
Plant response rating, Crabgrass, Large (large crabgrass; [5]): 70
Crabgrass, Large plant response rating (large crabgrass; [6]): 100
Morningglory plant response rating (morningglory; [4]): 30
Plant response rating, Morningglory (morningglory; [5]): 100
Morningglory plant response rating (morningglory; [6]): 30
Plant response rating, Morningglory (morningglory; [7]): 20
Sedge, Umbrella plant response rating [2]: 80
Lambsquarters plant response rating (lambsquarters; [4]): 80
Plant response rating, Lambsquarters (lambsquarters; [5]): 90
Lambsquarters plant response rating (lambsquarters; [6]): 100
Plant response rating, Lambsquarters (lambsquarters; [7]): 100
Barnyardgrass plant response rating (barnyardgrass [3]): 90
Plant response rating, Velvetleaf (velvetleaf; [5]): 70
Velvetleaf plant response rating (velvetleaf; [6]): 100
Plant response rating, Velvetleaf (velvetleaf; [7]): 30
Plant response rating, Wheat (wheat): 30
Oat, Wild plant response rating (wild oat; Postemergence): 10
Plant response rating, Oat, Wild (wild oat; Postemergence): 30

CCN(C)C(=O)c1cccc(NC(=O)c2cc(C(C)(C)C)nn2CC)c1 [Compound 48]
Barnyardgrass plant response rating (barnyardgrass [1]; [4]): 40
Plant response rating, Barnyardgrass (barnyardgrass [1]; [5]): 60
Barnyardgrass plant response rating (barnyardgrass [1]; [6]): 90
Plant response rating, Surinam Grass (Surinam grass; [5]): 50
Surinam Grass plant response rating (Surinam grass; [6]): 80
Plant response rating, Surinam Grass (Surinam grass; [7]): 10
Rice plant response rating (rice): 80
Cocklebur plant response rating (cocklebur; [4]): 0
Plant response rating, Cocklebur (cocklebur; [5]): 70
Cocklebur plant response rating (cocklebur; [6]): 50
Foxtail, Giant plant response rating (giant foxtail; [4]): 20
Plant response rating, Foxtail, Giant (giant foxtail; [5]): 30
Foxtail, Giant plant response rating (giant foxtail; [6]): 90
Plant response rating, Foxtail, Giant (giant foxtail; [7]): 70
Plant response rating, Pigweed (pigweed; [5]): 70
Pigweed plant response rating (pigweed; [6]): 100
Plant response rating, Pigweed (pigweed; [7]): 100
Corn plant response rating (corn; [4]): 0
Plant response rating, Corn (corn; [5]): 30
Corn plant response rating (corn; [6]): 0
Crabgrass, Large plant response rating (large crabgrass; [4]): 10
Plant response rating, Crabgrass, Large (large crabgrass; [5]): 20
Crabgrass, Large plant response rating (large crabgrass; [6]): 80
Morningglory plant response rating (morningglory; [4]): 0
Plant response rating, Morningglory (morningglory; [5]): 50
Morningglory plant response rating (morningglory; [6]): 40
Plant response rating, Morningglory (morningglory; [7]): 10
Sedge, Umbrella plant response rating [2]: 80
Lambsquarters plant response rating (lambsquarters; [4]): 60
Plant response rating, Lambsquarters (lambsquarters; [5]): 90
Lambsquarters plant response rating (lambsquarters; [6]): 90
Plant response rating, Lambsquarters (lambsquarters; [7]): 90
Barnyardgrass plant response rating (barnyardgrass [3]): 80
Plant response rating, Velvetleaf (velvetleaf; [5]): 80
Velvetleaf plant response rating (velvetleaf; [6]): 100
Plant response rating, Velvetleaf (velvetleaf; [7]): 90
Plant response rating, Wheat (wheat): 20
Oat, Wild plant response rating (wild oat; Postemergence): 10
Plant response rating, Oat, Wild (wild oat; Postemergence): 30

C#CCn1nc(C(C)(C)C)cc1C(=O)Nc1cccc(C(=O)NCC)c1 [Compound 50]
Plant response rating, Barnyardgrass (barnyardgrass [1]; [5]): 70
Barnyardgrass plant response rating (barnyardgrass [1]; [6]): 80
Barnyardgrass plant response rating (barnyardgrass [1]; [8]): 50
Plant response rating, Barnyardgrass (barnyardgrass [1]; [7]): 40
Plant response rating, Surinam Grass (Surinam grass; [5]): 40
Surinam Grass plant response rating (Surinam grass; [6]): 50
Surinam Grass plant response rating (Surinam grass; [8]): 30
Plant response rating, Surinam Grass (Surinam grass; [7]): 20
Rice plant response rating (rice): 60
Plant response rating, Cocklebur (cocklebur; [5]): 90
Cocklebur plant response rating (cocklebur; [6]): 0
Cocklebur plant response rating (cocklebur; [8]): 90
Plant response rating, Cocklebur (cocklebur; [7]): 0
Plant response rating, Foxtail, Giant (giant foxtail; [5]): 30
Foxtail, Giant plant response rating (giant foxtail; [6]): 100
Foxtail, Giant plant response rating (giant foxtail; [8]): 30
Plant response rating, Foxtail, Giant (giant foxtail; [7]): 20
Plant response rating, Pigweed (pigweed; [5]): 100
Pigweed plant response rating (pigweed; [6]): 100
Pigweed plant response rating (pigweed; [8]): 80
Plant response rating, Pigweed (pigweed; [7]): 100
Plant response rating, Corn (corn; [5]): 40
Corn plant response rating (corn; [6]): 10
Corn plant response rating (corn; [8]): 30
Plant response rating, Corn (corn; [7]): 0
Plant response rating, Crabgrass, Large (large crabgrass; [5]): 30
Crabgrass, Large plant response rating (large crabgrass; [6]): 90
Crabgrass, Large plant response rating (large crabgrass; [8]): 10
Plant response rating, Crabgrass, Large (large crabgrass; [7]): 30
Plant response rating, Morningglory (morningglory; [5]): 70
Morningglory plant response rating (morningglory; [6]): 40
Morningglory plant response rating (morningglory; [8]): 70
Plant response rating, Morningglory (morningglory; [7]): 10
Sedge, Umbrella plant response rating [2]: 80
Plant response rating, Lambsquarters (lambsquarters; [5]): 90
Lambsquarters plant response rating (lambsquarters; [6]): 100
Lambsquarters plant response rating (lambsquarters; [8]): 80
Plant response rating, Lambsquarters (lambsquarters; [7]): 90
Barnyardgrass plant response rating (barnyardgrass [3]): 70
Plant response rating, Velvetleaf (velvetleaf; [5]): 60
Velvetleaf plant response rating (velvetleaf; [6]): 50
Velvetleaf plant response rating (velvetleaf; [8]): 40
Plant response rating, Velvetleaf (velvetleaf; [7]): 20
Plant response rating, Wheat (wheat): 30
Wheat plant response rating (wheat; postemergence, 125 g ai/ha, visual rating): 30
Plant response rating, Oat, Wild (wild oat; Postemergence): 20
Oat, Wild plant response rating (wild oat; postemergence, visual rating): 20
